Source: patent US12606552B2, “Bifunctional compound, preparation method therefor, and use thereof” (SUZHOU KINTOR PHARMACEUTICALS, INC., priority 2020, dated 2026)

Legend:
[1] = Distribution of compounds in sebaceous glands and blood in golden hamsters; type: in vivo; conditions: for mean drug concentration in sebaceous glands: after 8 h
Description: Activity Assay Example 9: Distribution of Compounds in Sebaceous Glands and Blood in Golden Hamsters
6 male golden hamsters were selected for the experiment and divided into two groups (three in each group). The drug was administered by a single smear route. All animals fasted overnight before administration.
1.1 Experimental Method 1.1.1 Dosage of Administration
A46 was weighed into a 50 ml centrifuge tube, added with mixed solvent (75% ethanol, 15% glyceryl tri(2-ethylhexanoate) and 10% glycerol), vortexed and heated at 60° C. until A46 was completely dissolved. A46 was prepared at a concentration of 30 mg/mL, 100 mg/mL, and stored at room temperature in the dark.
In group 1, the dosage for smear administration was 1.2 mg, corresponding to an administration volume of 30 mL/kg. In group 2, the dosage for smear administration was 4 mg, and the administration volume was 100 mL/kg.
1.1.2 Method of Administration
During the experiment, the 2 sebaceous glands of all the hamsters were coated with the corresponding medicinal solution (the dosage was about 0.02 mL).
1.1.3 Observation of Animal Status
Immediately after administration, whether the animals have abnormal reactions was observed. If there were no abnormal reactions, the animals were observed twice during the experiment. If any abnormal reactions were found, the number of observations was recorded and increased in time until the animals returned to normal, or the experiment ended.
1.1.4 Sample Collection and Storage
All experimental animals were fasted overnight before administration, and blood was collected at corresponding time points into blood collection tubes containing heparin sodium anticoagulant after administration. After collection of whole blood, the blood collection tube was immediately shook gently and placed on ice, then centrifuged (4° C., 4000 rpm, 10 min) to collect the supernatant plasma sample (plasma volume ≥100 μL), and the supernatant plasma sample was stored at −80° C. before analysis. Plasma sample was collected for 8 h.

[2] = test system: flank sebaceous glands of golden hamster; experiment: In vivo efficacy on acne in female golden hamsters (growth of sebaceous plaques induced by testosterone propionate); conditions: skin smear once a day, 21 days
Text: Activity Assay Example 7: In Vivo Efficacy of Compounds on Acne in Female Golden Hamsters
1. Test object: The flank sebaceous glands of golden hamster are androgen-dependent organs, and testosterone propionate (male hormone) promotes the enlargement of sebaceous glands. This experiment is mainly to study the inhibitory effect of CB-03-01 (positive drug), Flutamide (positive drug) and the compound on sebaceous gland enlargement in female golden hamster acne model (androgen dependence), to further observe the in vivo drug efficacy of the compound, to provide the basis for clinical trials of androgen-induced acne symptoms.
Androgen (Testosterone Propionate-TP); CB-03-01 (Clascoterone, CAS No. 19608-29-8); □ Flutamide (Flutamide, CAS No. 13311-84-7); compound A46 of the present invention.
2.2 Experimental Animals, See Table 4 for Details
2.3 Administration Vehicle: Acetone. 3. Experimental Design
In this experiment, from 72 female golden hamsters, according to the size and body weight of sebaceous glands, golden hamsters were evenly distributed to each group, 6 mice per group, a total of 7 groups, and they were administered continuously for 21 days.
According to the protocol in the table, […] of drug was administered each time, it was evenly smeared on the sebaceous glands, and administered once a day.
Animal grouping and status observation: Before grouping, the body weight was weighed, and the sebaceous glands on both sides were shaved for the observation of the size of sebaceous glands. Animals were observed twice a day in the morning and afternoon during the administration period. On the 21st day after administration, the size of sebaceous glands and the body weight of animals were observed and recorded.
The size of the sebaceous glands is expressed by the area, and the vernier caliper recorded its long side (a) and short side (b), and the area of the sebaceous glands (S) is obtained from the formula for calculating the area of a rectangle. In model group and administration group, ΔS=S−S(vehicle). Growth inhibition rate (%)=(ΔS(acetone testosterone group)−ΔS (administration group))/ΔS(acetone testosterone group)*100%.

Cc1ncsc1-c1ccc(CNC(=O)[C@@H]2C[C@@H](O)CN2C(=O)[C@@H](NC(=O)COCCCCOc2ccc(-c3ccc(N4C(=S)N(c5ccc(C#N)c(C(F)(F)F)c5F)C(=O)C4(C)C)cn3)cc2)C(C)(C)C)cc1 [Compound A46]
mean drug concentration in sebaceous glands ([1]; group 1, single smear 1.2 mg (30 mg/mL)): 13513 ng/mL
mean drug concentration in sebaceous glands ([1]; group 2, single smear 4 mg (100 mg/mL)): 24223 ng/mL
maximum blood concentration ([1]; group 2, single smear 4 mg (100 mg/mL), one out of 3 animals, sampling 0.25-8 h): 10.6 ng/mL
blood concentration (below the detection limit) ([1]; group 2, single smear 4 mg (100 mg/mL), remaining 2 animals, sampling 0.25-8 h): < 2 ng/mL
The inhibition rate of the growth of sebaceous plaques (%) ([2]; 100 μg (0.4%) + testosterone propionate 12 μg): 19.24%
The inhibition rate of the growth of sebaceous plaques (%) ([2]; 200 μg (0.8%) + testosterone propionate 12 μg): 35.20%
The inhibition rate of the growth of sebaceous plaques (%) ([2]; 400 μg (1.6%) + testosterone propionate 12 μg): 49.54%
The inhibition rate of the growth of sebaceous plaques (%) ([2]; 800 μg (3.2%) + testosterone propionate 12 μg): 51.61%
